This passage reports LC retention time results from the RepoRT retention time repository (doi:10.1021/acs.analchem.2c02893).

The nature of this series: RP, Thermo Scientific Acclaim RSLC 120 C18, 100 × 2.1 mm, 2.2 µm, 30 °C, 0.2 mL/min, estimated dead time 1.1 min; A: 90% water + 10% methanol + 0.01% formic acid + 5 mM ammonium formate, pH 3.61; B: methanol + 0.01% formic acid + 5 mM ammonium formate, pH 3.61; gradient (min/%B) 0/1 1/1 2/39 13/99.9 15/99.9 15.1/1 20.1/1. The note with it: stereoisomer not certain.
With `O=C(Nc1ccc(Cl)cc1C(O)c1ccccc1)c1ccncc1` (stereo not given) [Inabenfide], the LC retention time is 9.27 min.

With `CCc1cc2c(cc1CC)CC(NCC(O)c1ccc(O)c3[nH]c(=O)ccc13)C2` (stereo not given) [Indacaterol], the LC retention time was 7.9 min.

In the case of `c1cc2c(c(NC3=NCCN3)c1)CCC2` [Indanazoline], the LC retention time was 4.76 min.

For the molecule `CC1Cc2ccccc2N1NC(=O)c1ccc(Cl)c(S(N)(=O)=O)c1` (stereo not given) [Indapamide], the LC retention time is 6.61 min.

Take `CC(C)(C)NC(=O)C1CN(Cc2cccnc2)CCN1CC(O)CC(Cc1ccccc1)C(=O)NC1c2ccccc2CC1O` (stereo not given) [Indinavir]: the LC retention time was 9.79 min.

Turning to `O=C(O)Cc1c[nH]c2ccccc12` [Indole-3-acetic acid], the LC retention time is 5.78 min.

Consider `COc1ccc2c(c1)c(CC(=O)O)c(C)n2C(=O)c1ccc(Cl)cc1` [Indomethacin], for which the LC retention time was 10.3 min.

With `O=C(NC1CCN(CCc2c[nH]c3ccccc23)CC1)c1ccccc1` [Indoramin], the LC retention time is 5.37 min.

Consider `COC(=O)N(C(=O)N1COC2(C(=O)OC)Cc3cc(Cl)ccc3C2=N1)c1ccc(OC(F)(F)F)cc1` (stereo not given) [Indoxacarb], for which the LC retention time is 11.6 min.

As to `CN(CC(O)CO)C(=O)c1c(I)c(NC(=O)C(CO)CO)c(I)c(C(=O)N(C)CC(O)CO)c1I` (stereo not given) [Iobitridol], the LC retention time was 2.74 min.

As for `CC(=O)N(CC(O)CN(C(C)=O)c1c(I)c(C(=O)NCC(O)CO)c(I)c(C(=O)NCC(O)CO)c1I)c1c(I)c(C(=O)NCC(O)CO)c(I)c(C(=O)NCC(O)CO)c1I` (stereo not given) [Iodixanol], the LC retention time was 3.56 min.

As for `COP(=S)(OC)Oc1cc(Cl)c(I)cc1Cl` [Iodofenphos (Jodfenphos)], the LC retention time is 12.7 min.

With `CC(=O)N(CC(O)CO)c1c(I)c(C(=O)NCC(O)CO)c(I)c(C(=O)NCC(O)CO)c1I` (stereo not given) [Iohexol], the LC retention time was 2.98 min.

As for `CN(C(=O)CO)c1c(I)c(C(=O)NCC(O)CO)c(I)c(C(=O)NCC(O)CO)c1I` (stereo not given) [Iomeprol], the LC retention time is 2.91 min.

With `CN(C)C=Nc1c(I)cc(I)c(CCC(=O)O)c1I` [Iopodic acid], the LC retention time was 10.2 min.

With `COCC(=O)Nc1c(I)c(C(=O)NCC(O)CO)c(I)c(C(=O)N(C)CC(O)CO)c1I` (stereo not given) [Iopromid], the LC retention time is 3.38 min.

For the molecule `CC(=O)Nc1c(I)c(C(=O)O)c(I)c(C(=O)NCCO)c1I` [Ioxitalamin acid], the LC retention time was 2.09 min.

As to `CC(C)[N+]1(C)C2CCC1CC(OC(=O)C(CO)c1ccccc1)C2` (stereo not given) [Ipratropium], the LC retention time was 4.17 min.

Consider `CN(C)CCCn1c2c(c3ccccc31)CCCCCC2` [Iprindol], for which the LC retention time was 9.26 min.

Regarding `CC(C)OP(=O)(OC(C)C)SCc1ccccc1` [Iprobenfos], the LC retention time was 10.6 min.

`CC(C)NC(=O)N1CC(=O)N(c2cc(Cl)cc(Cl)c2)C1=O` [Iprodione]: the LC retention time is 10.5 min.

Take `Cc1ccc(C(C)NC(=O)C(NC(=O)OC(C)C)C(C)C)cc1` (stereo not given) [Iprovalicarb]: the LC retention time was 9.82 min.

`CCCCC1=NC2(CCCC2)C(=O)N1Cc1ccc(-c2ccccc2-c2nn[nH]n2)cc1` [Irbesartan]: the LC retention time is 9.44 min.

For the molecule `CSc1nc(N)nc(NC(C)(C)C)n1` [Irgarol-descyclopropyl], the LC retention time is 8.43 min.

Turning to `CSc1nc(NC2CC2)nc(NC(C)(C)C)n1` [Irgarol], the LC retention time was 10.5 min.

For the molecule `CCOP(=S)(OCC)Oc1nc(Cl)n(C(C)C)n1` [Isazophos], the LC retention time was 9.87 min.

As to `CC(CC(C#N)(c1ccccc1)C(C)C)N(C)C` (stereo not given) [Isoaminile], the LC retention time was 5.96 min.

Consider `CC(C)CNC(=O)N1CCNC1=O` [Isocarbamid (Azolamide)], for which the LC retention time is 5.74 min.

`COP(N)(=S)Oc1ccccc1C(=O)OC(C)C` (stereo not given) [Isocarbophos]: the LC retention time is 8.32 min.

For `Clc1ccc(C(Cn2ccnc2)OCc2c(Cl)cccc2Cl)c(Cl)c1` (stereo not given) [Isoconazole], the LC retention time is 12.3 min.

On to `COP(=S)(NC(C)C)Oc1ccccc1C(=O)OC(C)C` (stereo not given) [Isofenphos-methyl], for which the LC retention time is 11.7 min.

On to `CCOP(=S)(NC(C)C)Oc1ccccc1C(=O)OC(C)C` (stereo not given) [Isofenphos], for which the LC retention time was 11.2 min.

For `NNC(=O)c1ccncc1` [Isoniazide], the LC retention time was 2.18 min.

In the case of `CC1(C)CC(N)CC(C)(CN)C1` (stereo not given) [Isophorone diamine], the LC retention time is 1.67 min.

Turning to `CNC(=O)Oc1ccccc1C(C)C` [Isoprocarb], the LC retention time was 8.12 min.

As to `CCCN(CCC)c1c([N+](=O)[O-])cc(C(C)C)cc1[N+](=O)[O-]` [Isopropalin], the LC retention time is 13.2 min.

For the molecule `CC(C)c1ccc(NC(N)=O)cc1` [Isoproturon-didemethyl (1-(4-Isoprophenyl)urea)], the LC retention time was 7.76 min.

Consider `CC(C)c1ccc(NC(=O)N(C)C)cc1` [Isoproturon], for which the LC retention time was 8.32 min.

Take `CC(CN1c2ccccc2Sc2cccnc21)N(C)C` (stereo not given) [Isothipendyl]: the LC retention time was 6.47 min.

`CCC(C)(CC)c1cc(NC(=O)c2c(OC)cccc2OC)on1` [Isoxaben]: the LC retention time was 9.42 min.

Take `CCOC(=O)C1=NOC(c2ccccc2)(c2ccccc2)C1` [Isoxadifen-ethyl]: the LC retention time is 10.7 min.

As for `CCOP(=S)(OCC)Oc1cc(-c2ccccc2)on1` [Isoxathion], the LC retention time was 11.3 min.

Take `CC(COc1ccccc1)NC(C)C(O)c1ccc(O)cc1` (stereo not given) [Isoxsuprine]: the LC retention time is 5.28 min.

On to `COC(=O)C1=C(C)NC(C)=C(C(=O)OC(C)C)C1c1cccc2nonc12` (stereo not given) [Isradipine], for which the LC retention time is 9.61 min.

As for `COc1cc2c(cc1OC)CC(=O)N(CCCN(C)CC1Cc3cc(OC)c(OC)cc31)CC2` (stereo not given) [Ivabradine], the LC retention time was 5.02 min.

`CCC(C)C1OC2(CCC1C)CC1CC(CC=C(C)C(OC3CC(OC)C(OC4CC(OC)C(O)C(C)O4)C(C)O3)C(C)C=CC=C3COC4C(O)C(C)=CC(C(=O)O1)C34O)O2` (stereo not given) [Ivermectin B1a]: the LC retention time is 14.4 min.

In the case of `COC1CC(OC2C(C)OC(OC3C(C)=CCC4CC(CC5(CCC(C)C(C(C)C)O5)O4)OC(=O)C4C=C(C)C(O)C5OCC(=CC=CC3C)C45O)CC2OC)OC(C)C1O` (stereo not given) [Ivermectin B1b], the LC retention time is 14.2 min.

On to `CCCCCn1c(C)c(C(=O)c2cccc3ccccc23)c2ccccc21` [JWH-007], for which the LC retention time was 12.6 min.

For the molecule `CCCn1c(C)c(C(=O)c2cccc3ccccc23)c2ccccc21` [JWH-015], the LC retention time was 11.5 min.

Turning to `CCCCCn1cc(C(=O)c2cccc3ccccc23)c2ccc(OC)cc21` [JWH-018-6-Methoxy-Ind], the LC retention time is 12.4 min.

As for `CCCCCn1cc(C(=O)C23CC4CC(CC(C4)C2)C3)c2ccccc21` [JWH-018-Adamantoyl. AB-001], the LC retention time is 13.7 min.

On to `CCCCCn1c(O)c(C(=O)c2cccc3ccccc23)c2ccccc21` [JWH-018-M-2-OH-Ind], for which the LC retention time was 14 min.

For the molecule `CCCCCn1cc(C(=O)c2cccc3ccccc23)c2c(O)cccc21` [JWH-018-M-4-OH-Ind], the LC retention time is 12.5 min.

Take `CCCCCn1cc(C(=O)c2cccc3ccccc23)c2cc(O)ccc21` [JWH-018-M-5-OH-Ind]: the LC retention time is 11.3 min.

As for `CCCCCn1cc(C(=O)c2cccc3ccccc23)c2ccc(O)cc21` [JWH-018-M-6-OH-Ind], the LC retention time is 11.2 min.

In the case of `CCCCCn1cc(C(=O)c2cccc3ccccc23)c2cccc(O)c21` [JWH-018-M-7-OH-Ind], the LC retention time was 11.8 min.

For the molecule `CC(O)CCCn1cc(C(=O)c2cccc3ccccc23)c2ccccc21` (stereo not given) [JWH-018-M-N-4-OH-Pentyl], the LC retention time was 10.1 min.

On to `O=C(c1cccc2ccccc12)c1cn(CCCCCO)c2ccccc12` [JWH-018-M-N-5-OH-Pentyl], for which the LC retention time is 10 min.

With `O=C(O)CCCCn1cc(C(=O)c2cccc3ccccc23)c2ccccc21` [JWH-018-M-N-Pentanoic acid], the LC retention time was 9.71 min.

On to `CCCCCn1cc(C(=O)c2cccc3ccccc23)c2ccccc21` [JWH-018], for which the LC retention time is 12.4 min.

As for `CCCCCCn1cc(C(=O)c2cccc3ccccc23)c2ccccc21` [JWH-019], the LC retention time was 12.9 min.

Turning to `CCCCCCCn1cc(C(=O)c2cccc3ccccc23)c2ccccc21` [JWH-020], the LC retention time was 13.4 min.

For the molecule `CCCCn1cc(C(=O)c2cccc3ccc(C)cc23)c2ccccc21` [JWH-073-2-Methyl], the LC retention time is 12.3 min.

Take `CCCCn1cc(C(=O)c2ccc(C)c3ccccc23)c2ccccc21` [JWH-073-4-Methyl]: the LC retention time is 12.4 min.

Consider `CCCCn1c(O)c(C(=O)c2cccc3ccccc23)c2ccccc21` [JWH-073-M-2-OH-Ind], for which the LC retention time is 13.5 min.

`CC(O)CCn1cc(C(=O)c2cccc3ccccc23)c2ccccc21` (stereo not given) [JWH-073-M-3-OH-Butyl]: the LC retention time was 9.91 min.

`O=C(c1cccc2ccccc12)c1cn(CCCCO)c2ccccc12` [JWH-073-M-4-OH-Butyl]: the LC retention time is 9.56 min.

Consider `CCCCn1cc(C(=O)c2cccc3ccccc23)c2c(O)cccc21` [JWH-073-M-4-OH-Ind], for which the LC retention time was 12 min.

On to `CCCCn1cc(C(=O)c2cccc3ccccc23)c2cc(O)ccc21` [JWH-073-M-5-OH-Ind], for which the LC retention time is 11.3 min.

As to `CCCCn1cc(C(=O)c2cccc3ccccc23)c2ccc(O)cc21` [JWH-073-M-6-OH-Ind], the LC retention time is 10.6 min.
